# Results as given in US20110046070A1, “GENE EXPRESSION INHIBITOR SELECTIVE FOR MATRIX METALLOPROTEINASE-9 GENE” (priority 2008, published 2011).
# Tests used:
# [1] = system: double-stranded DNA of the region from −77 to −70 containing the AP-1 binding site of the human matrix metalloproteinase-9 promoter; test: Gel shift assay (EMSA), AP-1 site oligonucleotide; conditions: 10 μM polyamide, 0.6 μM fluorescently labeled double-stranded DNA, 37° C., 1 hour
# Protocol: (§1) Oligonucleotides were synthesized and annealed to form 2 kinds of double-stranded oligonucleotides corresponding to the promoter base pairs against HMMP9AP1 and HMMP9NFκβ. One single-stranded oligonucleotide was labeled with FITC and hybridized with another single-stranded oligonucleotide as a complementary sequence to prepare double-stranded DNA. Specifically, nucleotides having the following nucleotide sequences were prepared: HMMP9AP1 (match) sense primer (5′[…]) (SEQ ID NO: 8) corresponding to the region from −77 to −70 containing the AP-1 binding site; this sequence plus 2-base mutation, i.e., HMMP9AP1 oligo DNA (mismatch 1) sense primer (5′[…]) (SEQ ID NO: 9); HMMP9NFκβ (match) sense primer (5′[…]) (SEQ ID NO: 10) containing the region from −605 to −599 containing the NFκβ binding site; this sequence plus 2-base mutation, i.e., HMMP9NFκβ (mismatch 1) sense primer (5′[…]) (SEQ ID NO: 11); and antisense primers respectively complementary to these 4 primers. […] The obtained complexes were electrophoresed on a 20% polyacrylamide gel, and the mobilities of the fluorescently labeled double-stranded oligonucleotides were analyzed with a fluorescent image analyzer (FUJIFILM, LAS-4000, Tokyo, Japan). […]
# [2] = system: human breast cancer MDA-MB-231 cells; test: Wound-healing migration assay, MDA-MB-231; format: cell-based; conditions: 48 hours after the damage, various concentrations, vs DMSO
# Protocol: A human breast cancer MDA-MB-231 cell strain was used. The cells were cultured at 37° C. in a humid environment containing 5% CO^2 in an RPMI1640 medium (Sigma-Aldrich Corp., St. Louis, Mo., USA) supplemented with 100 μg/ml streptomycin, 100 units/ml penicillin and 10% fetal bovine serum (FBS) (Sigma-Aldrich Corp.). Human uterine cervix cancer HeLa cells were cultured in a Dulbecco's modified Eagle medium (DMEM, Invitrogen Life Technologies, Corp., Carlsbad, Calif.) containing 10% FBS and 2 mM L-glutamine.
# To assay cellular migration in the process of wound healing, 3×10^5 cells were inoculated to each well of an 8-well chamber slide, and the cell layer was damaged using a plastic micropipette when the cells reached confluence. The medium and debris were removed by suction, and 100 μl of a fresh medium containing various polyamides was replaced therefor. 48 hours after the damage, the cells were fixed with Diff-Quik solution (SYSMEX INTERNATIONAL REAGENTS CO., LTD., Kobe, Japan), then stained, and photographed using a phase-contrast microscope.
# MDA-MB-231 cells = test: Invasion assay into matrigel, MDA-MB-231; format: cell-based, human; conditions: 22 hours
# Protocol: Cell invasion assay was conducted using a 24-well cell culture BioCoat matrigel invasion chamber (BD Biosciences, Discovery Labware, Bedford, Mass., USA). MDA-MB-231 cells (1×10^3 cells/well) or HeLa cells (1×10^3 cells/well) were suspended in an RPMI1640 or DMEM medium containing 0.1% FBS and added to the upper chamber. An RPMI1640 or DMEM medium containing 5% FBS was added to the lower chamber. Then, the cells were cultured at 37° C. for 22 hours in a 5% CO2 environment. Noninvasive cells remaining on the membrane were wiped off using a cotton swab. Invasion cells were fixed and stained with a Diff-Quik kit. The number of cells invading the membrane was determined in mean±standard deviation from a total of 3 membranes by counting in 10 fields of view per membrane using an optical microscope (200× magnification).
# The degradation of constitutive proteins of extracellular matrix is important for the invasion of tumor cells. To evaluate the influence of HMMP9AP1 and HMMP9NFκβ, the MMP9 Py-Im polyamides of the present invention, on the invasion of tumor cells, 5×10^3 MDA-MB-231 cells were incubated with each polyamide at various concentrations for 22 hours. The invasiveness of cells treated with DMSO or each polyamide of the present invention was compared in MDA-MB-231 cells. The DMSO-treated MDA-MB-231 cells remarkably invaded the transparent membrane coated with matrigel. […] In contrast, the cells treated with the HMMP9AP1 or HMMP9NFκβ of the present invention had much lower invasion into the membrane.
# [3] = system: MMP-9 gelatin degradation activity in culture supernatants of MDA-MB-231 cells; test: Zymography assay using gelatin as a substrate; format: cell-based, human; conditions: 48 hours, MDA-MB-231 supernatant; for inhibition at 1 µM: read-out: inhibition of gelatin degradation activity compared with the control
# Protocol: Proteins collected from culture supernatants of MDA-MB-231 cells were assayed using Novex (registered trademark) zymogram gelatin gel and XCell SureLock™ Mini-cell (Invitrogen Life Technologies, Corp.). The polyamides of the present invention were separately added at various concentrations to 2.5×10^5 cells. After 48-hour incubation, the supernatants were collected. Proteins from each sample were mixed with Novex (registered trademark) Tris-glycine SDS sample buffer (2×) and separated on a 10% zymogram gelatin gel. The gel was washed with a renaturing buffer and a developing buffer according to the manufacturer's manual. Then, the gel was digitized.
# [4] = system: double-stranded DNA of the region from −605 to −599 containing the NFκβ binding site of the human matrix metalloproteinase-9 promoter; test: Gel shift assay (EMSA), NFκβ site oligonucleotide; conditions: 10 μM polyamide, 0.6 μM fluorescently labeled double-stranded DNA, 37° C., 1 hour
# Protocol: as §1
smiles,measurement,setting,value
CC(=O)Nc1cn(C)c(C(=O)Nc2cc(C(=O)NCCC(=O)Nc3cn(C)c(C(=O)Nc4cc(C(=O)Nc5cc(C(=O)NCCCC(=O)Nc6cn(C)c(C(=O)Nc7cn(C)c(C(=O)Nc8cc(C(=O)NCCC(=O)Nc9cn(C)c(C(=O)Nc%10cc(C(=O)NCCC(=O)NCCCN(C)C)n(C)c%10)n9)n(C)c8)n7)n6)n(C)c5)n(C)c4)n3)n(C)c2)n1 [HMMP9AP1],binding to target double-stranded DNA (mobility versus lanes containing only DS),[1],lower mobility
same,migration of MDA-MB-231 cells,[2],inhibit the migration of MDA-MB-231 cells in a concentration-dependent manner
same,decrease in invasion compared to the DMSO-treated control,MDA-MB-231 cells; 0.3 μM,90%
same,decrease in invasion compared to the DMSO-treated control,MDA-MB-231 cells; 1 μM,52%
same,decrease in invasion compared to the DMSO-treated control,MDA-MB-231 cells; 3 μM,44%
same,decrease in invasion compared to the DMSO-treated control,MDA-MB-231 cells; 10 μM,25.4%
same,inhibition of gelatin degradation activity (enzymatic activity of MMP-9),[3]; 10 μM,almost completely
same,inhibition at 1 µM,[3]; Homo sapiens,50%
CC(=O)Nc1cc(C(=O)Nc2cc(C(=O)NCCC(=O)Nc3cc(C(=O)Nc4cc(C(=O)NCCCC(=O)Nc5cn(C)c(C(=O)Nc6cn(C)c(C(=O)NCCC(=O)Nc7cc(C(=O)Nc8cc(C(=O)NCCC(=O)NCCCN(C)C)n(C)c8)n(C)c7)n6)n5)n(C)c4)n(C)c3)n(C)c2)n(C)c1 [HMMP9NFκβ],binding to target double-stranded DNA (mobility versus lanes containing only DS),[4],lower mobility
same,migration of MDA-MB-231 cells,[2],inhibit the migration of MDA-MB-231 cells in a concentration-dependent manner
same,decrease in invasion compared to the DMSO-treated control,MDA-MB-231 cells; 0.3 μM,88%
same,decrease in invasion compared to the DMSO-treated control,MDA-MB-231 cells; 1 μM,61%
same,decrease in invasion compared to the DMSO-treated control,MDA-MB-231 cells; 3 μM,30%
same,decrease in invasion compared to the DMSO-treated control,MDA-MB-231 cells; 10 μM,22%
same,inhibition at 1 µM,[3]; Homo sapiens,62%
same,inhibition at 10 µM,"[3]; Homo sapiens, 10 μM, read-out: inhibition of gelatin degradation activity (enzymatic activity of MMP-9)",82%
